The nature of assay [1]: cells. The class given is functional, cell-based.
Assay [2] addresses T1, Trace amine-associated receptor 1 (Homo sapiens, UniProt Q96RJ0).
T1 sequence (Q96RJ0 whole entry): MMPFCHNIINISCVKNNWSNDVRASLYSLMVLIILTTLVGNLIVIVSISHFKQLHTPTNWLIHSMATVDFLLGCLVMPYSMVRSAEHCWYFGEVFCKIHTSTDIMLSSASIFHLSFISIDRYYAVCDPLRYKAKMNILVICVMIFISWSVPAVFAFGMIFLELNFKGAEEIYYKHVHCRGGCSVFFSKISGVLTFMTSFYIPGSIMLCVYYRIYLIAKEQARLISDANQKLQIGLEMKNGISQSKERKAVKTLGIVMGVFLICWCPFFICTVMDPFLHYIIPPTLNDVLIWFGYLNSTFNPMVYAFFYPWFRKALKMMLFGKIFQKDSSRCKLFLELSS
In words: Fluorescence-based cell-based high throughput dose response assay to identify agonists of the human trace amine associated receptor 1 (TAAR1). The class given is functional.

In assay [3] the target is T1, Trace amine-associated receptor 1. Kind of assay: Counterscreen for agonists of the human trace amine associated receptor 1 (hTAAR1): Fluorescence-based cell-based high throughput dose response assay to identify hTAAR1 agonist that also desensitize TAAR1 receptor response. Type of assay: functional. (Counterscreens check selectivity or assay interference.)
Assay [4] can be described thus: cells. The class given is functional, cell-based. This is another data set of the same source.
The next assay deals with Beta-galactosidase (Escherichia coli, UniProt Q8VNN2). Kind of assay: Dose response counterscreen for EBI2 assay utilizing the enzyme, b-galactosidase. Type of assay: functional.
Sequence of Beta-galactosidase (Q8VNN2 whole entry): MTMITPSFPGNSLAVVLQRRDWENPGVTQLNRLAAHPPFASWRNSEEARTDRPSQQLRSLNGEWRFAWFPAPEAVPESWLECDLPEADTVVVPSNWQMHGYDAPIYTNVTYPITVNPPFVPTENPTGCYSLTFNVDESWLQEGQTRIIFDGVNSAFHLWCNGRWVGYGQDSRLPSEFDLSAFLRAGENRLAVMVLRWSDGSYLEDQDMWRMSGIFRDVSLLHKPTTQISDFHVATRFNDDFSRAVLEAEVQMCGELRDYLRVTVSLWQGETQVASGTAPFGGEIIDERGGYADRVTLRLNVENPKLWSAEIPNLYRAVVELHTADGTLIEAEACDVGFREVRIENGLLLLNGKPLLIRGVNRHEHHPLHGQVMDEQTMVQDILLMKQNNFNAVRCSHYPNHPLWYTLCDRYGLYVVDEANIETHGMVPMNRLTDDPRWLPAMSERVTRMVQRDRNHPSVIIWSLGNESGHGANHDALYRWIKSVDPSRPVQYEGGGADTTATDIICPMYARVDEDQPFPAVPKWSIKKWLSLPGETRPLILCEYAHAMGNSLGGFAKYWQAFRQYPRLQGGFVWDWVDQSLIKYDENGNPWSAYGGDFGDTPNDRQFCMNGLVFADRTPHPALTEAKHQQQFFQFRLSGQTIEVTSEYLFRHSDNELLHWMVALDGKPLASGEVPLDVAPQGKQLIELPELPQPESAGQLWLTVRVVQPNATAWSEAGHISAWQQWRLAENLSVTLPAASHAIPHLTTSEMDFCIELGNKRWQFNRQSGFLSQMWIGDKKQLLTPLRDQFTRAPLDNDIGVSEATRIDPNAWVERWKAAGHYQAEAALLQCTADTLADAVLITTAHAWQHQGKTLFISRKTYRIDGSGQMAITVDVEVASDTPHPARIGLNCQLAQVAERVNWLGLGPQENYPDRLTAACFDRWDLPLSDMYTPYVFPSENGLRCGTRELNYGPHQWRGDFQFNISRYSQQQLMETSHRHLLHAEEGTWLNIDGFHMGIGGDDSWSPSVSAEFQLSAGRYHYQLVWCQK
The target in assay [5] is T2, Heat shock factor protein 1 (Mus musculus, UniProt P38532).
T2 sequence (P38532 whole entry): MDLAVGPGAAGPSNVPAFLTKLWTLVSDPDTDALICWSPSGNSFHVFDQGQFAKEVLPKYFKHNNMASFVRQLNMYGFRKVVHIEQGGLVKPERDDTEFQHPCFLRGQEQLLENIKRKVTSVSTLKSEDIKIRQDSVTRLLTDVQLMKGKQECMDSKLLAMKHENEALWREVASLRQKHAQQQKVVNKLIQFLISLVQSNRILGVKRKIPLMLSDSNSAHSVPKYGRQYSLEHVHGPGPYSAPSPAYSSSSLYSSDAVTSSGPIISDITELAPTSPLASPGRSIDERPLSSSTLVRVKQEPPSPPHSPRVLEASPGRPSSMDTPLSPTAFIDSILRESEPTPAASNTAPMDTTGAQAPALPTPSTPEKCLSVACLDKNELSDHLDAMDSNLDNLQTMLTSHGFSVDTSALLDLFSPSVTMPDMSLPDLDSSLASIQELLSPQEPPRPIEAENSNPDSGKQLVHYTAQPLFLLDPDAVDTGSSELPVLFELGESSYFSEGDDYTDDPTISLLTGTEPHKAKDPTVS
In words: enhancement of HSF1-driven luciferase signal – cell-based, NIH3T3, luminescence, dose retest, confirmation (AID 435004).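 Note: stress induced by proteasome inhibitor MG132 added 30 min after compound; luciferase reporter driven by HSF1 response element in NIH3T3 cells; actives raise luminescence as potentiators of the MG132 stress response.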 Type of assay: functional.

In assay [6] the target is T3, DNA repair protein RAD52 homolog (Homo sapiens, UniProt P43351).
T3 sequence (P43351 whole entry): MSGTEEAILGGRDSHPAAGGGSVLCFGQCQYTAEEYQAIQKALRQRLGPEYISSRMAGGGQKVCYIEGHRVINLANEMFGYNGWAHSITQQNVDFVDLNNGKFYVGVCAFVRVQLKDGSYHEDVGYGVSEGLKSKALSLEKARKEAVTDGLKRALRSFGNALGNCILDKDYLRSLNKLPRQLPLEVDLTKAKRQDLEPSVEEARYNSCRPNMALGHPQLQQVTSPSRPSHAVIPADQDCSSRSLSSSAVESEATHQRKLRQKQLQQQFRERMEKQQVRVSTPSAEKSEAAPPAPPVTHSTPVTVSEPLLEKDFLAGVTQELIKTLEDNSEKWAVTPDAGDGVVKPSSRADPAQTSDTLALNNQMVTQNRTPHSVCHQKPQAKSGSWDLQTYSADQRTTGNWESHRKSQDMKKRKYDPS
Type of assay: functional, biochemical.

In another assay the target is Protein Wnt-3a (Mus musculus, UniProt P27467). Kind of assay: SAR analysis of small molecule antagonists of Gli-SUFU in a Wnt3a luminescent reporter assay. The class given is functional.
Sequence of Protein Wnt-3a (P27467 whole entry): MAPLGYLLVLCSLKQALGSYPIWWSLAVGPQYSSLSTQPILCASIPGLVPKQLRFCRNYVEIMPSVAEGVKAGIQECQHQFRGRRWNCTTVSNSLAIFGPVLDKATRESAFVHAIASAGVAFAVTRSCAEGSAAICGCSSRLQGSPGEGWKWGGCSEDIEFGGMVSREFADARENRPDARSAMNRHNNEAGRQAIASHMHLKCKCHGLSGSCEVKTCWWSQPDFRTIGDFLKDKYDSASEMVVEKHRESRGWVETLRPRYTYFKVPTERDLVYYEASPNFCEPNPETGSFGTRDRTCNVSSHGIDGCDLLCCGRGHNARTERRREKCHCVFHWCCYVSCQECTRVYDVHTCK
Assay [7] addresses T4, Replicative DNA helicase DnaB (Mycobacterium tuberculosis, UniProt P9WMR3).
T4 sequence (P9WMR3 whole entry): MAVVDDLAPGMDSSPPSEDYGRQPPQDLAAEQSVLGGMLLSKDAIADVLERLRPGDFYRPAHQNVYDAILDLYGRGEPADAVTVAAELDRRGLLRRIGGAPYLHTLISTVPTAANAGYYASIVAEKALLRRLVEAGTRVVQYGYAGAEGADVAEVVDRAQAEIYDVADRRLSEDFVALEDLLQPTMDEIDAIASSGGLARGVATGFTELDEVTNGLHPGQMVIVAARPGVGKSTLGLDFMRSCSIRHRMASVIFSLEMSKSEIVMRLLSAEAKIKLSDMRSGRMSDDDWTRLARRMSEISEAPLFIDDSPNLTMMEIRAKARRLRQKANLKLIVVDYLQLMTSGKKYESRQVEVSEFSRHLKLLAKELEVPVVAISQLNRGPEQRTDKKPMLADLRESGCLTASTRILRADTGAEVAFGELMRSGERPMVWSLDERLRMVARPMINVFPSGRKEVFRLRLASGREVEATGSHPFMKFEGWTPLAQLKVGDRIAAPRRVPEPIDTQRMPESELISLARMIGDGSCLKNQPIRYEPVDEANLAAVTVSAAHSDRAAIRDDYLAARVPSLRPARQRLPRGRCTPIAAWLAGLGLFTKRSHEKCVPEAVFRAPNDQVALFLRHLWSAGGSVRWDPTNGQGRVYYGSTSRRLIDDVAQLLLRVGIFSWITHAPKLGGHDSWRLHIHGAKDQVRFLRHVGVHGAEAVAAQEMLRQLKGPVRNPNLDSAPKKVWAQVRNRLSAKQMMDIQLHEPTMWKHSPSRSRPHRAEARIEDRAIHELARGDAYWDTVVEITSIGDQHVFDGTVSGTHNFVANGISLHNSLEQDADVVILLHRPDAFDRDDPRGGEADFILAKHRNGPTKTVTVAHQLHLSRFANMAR
Kind of assay: DnaB intein splicing inhibitors, dose response, biochemical, cell-free fluorescence (AID 449749). The class given is functional.

A further assay concerns the target T5, Protein RecA (Mycobacterium tuberculosis, UniProt P9WHJ3).
T5 sequence (P9WHJ3 whole entry): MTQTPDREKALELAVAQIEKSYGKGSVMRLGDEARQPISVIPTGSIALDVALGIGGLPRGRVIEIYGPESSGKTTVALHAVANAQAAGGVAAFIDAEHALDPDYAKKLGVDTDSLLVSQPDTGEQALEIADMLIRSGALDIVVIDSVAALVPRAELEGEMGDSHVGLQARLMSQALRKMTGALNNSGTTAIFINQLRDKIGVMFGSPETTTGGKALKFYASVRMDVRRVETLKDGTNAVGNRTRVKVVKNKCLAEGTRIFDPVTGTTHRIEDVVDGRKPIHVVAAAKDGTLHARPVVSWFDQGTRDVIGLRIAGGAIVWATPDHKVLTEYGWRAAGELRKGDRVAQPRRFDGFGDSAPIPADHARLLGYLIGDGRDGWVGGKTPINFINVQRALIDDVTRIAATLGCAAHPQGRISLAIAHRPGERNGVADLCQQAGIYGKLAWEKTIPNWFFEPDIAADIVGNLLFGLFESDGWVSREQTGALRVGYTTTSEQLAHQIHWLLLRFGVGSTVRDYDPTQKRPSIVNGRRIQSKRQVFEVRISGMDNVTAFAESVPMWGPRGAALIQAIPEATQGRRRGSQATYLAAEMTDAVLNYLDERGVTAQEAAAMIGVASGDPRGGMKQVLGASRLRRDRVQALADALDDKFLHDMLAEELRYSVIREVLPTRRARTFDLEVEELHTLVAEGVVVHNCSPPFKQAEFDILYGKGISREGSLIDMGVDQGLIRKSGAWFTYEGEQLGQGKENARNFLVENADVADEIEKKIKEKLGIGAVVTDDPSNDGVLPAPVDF
Kind of assay: Fluorescence Cell-Free Homogeneous Dose Retest to Identify Inhibitors of RecA-Intein Splicing Activity. [Related pubchem assays (depositor defined):AID2097, AID2223, AID489010, AID492950]. The class given is functional.

For assay [8], the target named is T6, Mitochondrial peptide methionine sulfoxide reductase (Bos taurus, UniProt P54149).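 Note: absorbance read-out, biochemical high-throughput dose-response screen for MsrA inhibitors, confirmatory; recombinant bovine MsrA coupled to E. coli TrxB with NADPH and selenocystamine; potency is for inhibitors of MsrA activity on DMSO substrate.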
T6 sequence (P54149 whole entry): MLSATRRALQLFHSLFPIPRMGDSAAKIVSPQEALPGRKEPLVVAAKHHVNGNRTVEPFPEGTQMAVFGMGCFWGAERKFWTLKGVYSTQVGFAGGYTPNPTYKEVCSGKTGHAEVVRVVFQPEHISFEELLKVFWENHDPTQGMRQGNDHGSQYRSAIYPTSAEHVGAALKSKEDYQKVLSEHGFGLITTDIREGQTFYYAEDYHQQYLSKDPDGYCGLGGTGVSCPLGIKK
The class given is functional.

Assay [9] concerns the target T7, Apoptotic protease-activating factor 1 (Homo sapiens, UniProt O14727).
T7 sequence (O14727 whole entry): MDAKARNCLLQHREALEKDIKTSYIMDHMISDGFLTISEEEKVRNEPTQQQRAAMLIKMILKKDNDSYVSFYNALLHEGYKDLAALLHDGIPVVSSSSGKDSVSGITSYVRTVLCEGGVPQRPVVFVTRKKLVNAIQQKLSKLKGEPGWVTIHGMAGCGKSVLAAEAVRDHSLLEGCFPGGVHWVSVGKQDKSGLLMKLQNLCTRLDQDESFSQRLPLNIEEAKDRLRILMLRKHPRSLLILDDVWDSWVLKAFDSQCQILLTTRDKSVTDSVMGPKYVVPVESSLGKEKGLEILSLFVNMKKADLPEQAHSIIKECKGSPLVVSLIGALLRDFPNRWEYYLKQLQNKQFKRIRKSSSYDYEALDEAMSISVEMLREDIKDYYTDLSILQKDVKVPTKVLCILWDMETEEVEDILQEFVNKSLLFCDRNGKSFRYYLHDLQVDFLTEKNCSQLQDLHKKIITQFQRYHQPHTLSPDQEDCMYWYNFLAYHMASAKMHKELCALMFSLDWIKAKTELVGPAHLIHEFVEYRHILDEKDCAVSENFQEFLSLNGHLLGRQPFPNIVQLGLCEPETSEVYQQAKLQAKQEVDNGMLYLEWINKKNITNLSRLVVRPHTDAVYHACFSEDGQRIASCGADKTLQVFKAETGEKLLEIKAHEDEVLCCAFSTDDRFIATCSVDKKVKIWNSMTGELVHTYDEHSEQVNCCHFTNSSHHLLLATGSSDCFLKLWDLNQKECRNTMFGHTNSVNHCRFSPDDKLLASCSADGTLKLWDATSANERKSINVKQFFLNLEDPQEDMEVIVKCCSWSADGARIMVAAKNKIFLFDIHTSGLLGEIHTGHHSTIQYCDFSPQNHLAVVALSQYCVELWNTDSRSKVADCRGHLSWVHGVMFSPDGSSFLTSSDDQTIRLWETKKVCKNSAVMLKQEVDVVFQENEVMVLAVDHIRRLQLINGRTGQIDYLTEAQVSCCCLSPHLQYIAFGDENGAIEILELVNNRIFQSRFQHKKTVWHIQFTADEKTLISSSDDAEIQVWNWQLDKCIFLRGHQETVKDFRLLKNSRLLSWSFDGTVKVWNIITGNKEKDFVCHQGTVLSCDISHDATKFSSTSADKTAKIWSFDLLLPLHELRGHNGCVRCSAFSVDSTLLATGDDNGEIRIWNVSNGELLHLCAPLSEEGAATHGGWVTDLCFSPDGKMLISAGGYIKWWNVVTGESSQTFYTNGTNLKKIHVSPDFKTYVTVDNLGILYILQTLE
The class given is functional.

Each structure is given as a SMILES string. The source made the active and inactive calls.

For the molecule `CCn1c(C)nc2cc(C(=O)NNC(=O)Nc3ccc(Cl)cc3)ccc21`, the IC50 (in the assay “cells [1]”; in assay [3]) was > 29.9 µM (inactive) throughout. The EC50 (in assay [2]; in “cells [4]”) was > 29.9 µM (inactive) throughout.

On to `Cn1c(=O)c(=O)n(C)c2cc(S(=O)(=O)NCCc3ccccc3)ccc21`, for which the IC50 (as a rule, the concentration that gives 50% inhibition) in the assay “cells [1]” is > 29.9 µM (inactive); in assay [3] it was 8.95 µM (active). The results for the EC50 (in assay [2]; in “cells [4]”) were 2.21 µM (active) and > 29.9 µM (inactive), respectively.

As to `CCOC(=O)N1CCN(C(=O)c2cc3c(s2)-c2c(C)cccc2OC3)CC1`, on Beta-galactosidase, the IC50 was > 80 µM (inactive).

Consider `O=C(CSc1ccc(Cl)cc1)N1CCN(c2c(Cl)cccc2[N+](=O)[O-])CC1`, for which the IC50 on Beta-galactosidase is > 80 µM (inactive). For the same molecule, the half-maximal effective concentration (EC50) (usually the concentration needed to bring the measured effect to its halfway point) in [5] was 14.8 µM (active).

Take `Cc1ccc(Nc2ccc(C(=O)NC3CCCCC3)cn2)cc1`: the IC50 at Beta-galactosidase was > 80 µM (inactive).

Regarding `CCCCCCCCCCCCCCCC[n+]1ccccc1`, in assay [6], the AC50 – broadly, the concentration giving half of the maximal activity seen – is 4.21 µM (active).

As for `CC(=NCCc1ccccc1)C1=C(O)OCC1`, the values for the IC50 (in the assay “cells [1]”; in [3]) were > 30 µM (inactive) and 2.35 µM (active), respectively. In addition, the EC50 in [2] is 0.65 µM (active); in the assay “cells [4]” it was > 30 µM (inactive).

On to `Cc1nc(NC(=O)c2ccccc2)cc(N2CCCC2)n1`, for which, on Protein Wnt-3a, the IC50 is > 21.8 µM (inactive).

`O=C(Nc1cc(N2CCCCC2)ncn1)c1ccsc1`: the IC50 at Protein Wnt-3a was > 21.8 µM (inactive).

On to `CCN(CC)c1cc(NC(=O)c2cccc(F)c2)ncn1`, for which the IC50 at Protein Wnt-3a is > 21.8 µM (inactive).

On to `O=C(O)c1cccc(NC2=C(n3nnc4ccccc43)C(=O)c3ccccc3C2=O)c1`, for which, in assay [7], the AC50 is 2.53 µM (active). At Protein RecA, the EC50 is 2.26 µM (active). Besides, the results for the IC50 in assay [8] and in assay [9] were 31.4 µM (inactive) and 10.9 µM (active), respectively.

(Values after ChEMBL document CHEMBL1201862, “PubChem BioAssay data set” (2004).)
